Reference: patent publication US9694045B2, “Pharmaceutical composition for preventing or treating inflammatory diseases comprising trachelospermi caulis extract and paeonia suffruticosa andrews extract, and method for preparing the same” (SINIL PHARMACEUTICAL CO., LTD., priority 2010, dated 2017)

Columns and labels:
Format in all cases: in vivo
[1] = tested on: splenocytes of arthritis-induced mice; assay: Splenocyte proliferation in arthritis-induced mice (BrdU ELISA); conditions: Mus musculus, positive control group (bucillamine 300 mg/kg oral)
Protocol: Bovine type II collagen and adjuvant were separately emulsified, and each emulsion was subcutanesously injected at a dose of 100 μg to the tail. Three weeks later, a booster was achieved by the intraperitoneal injection of 100 μg of bovine type II collagen to induce arthritis. Immediately after the induction, drugs were administered for 21 days and their inhibitory activity against arthritis was measured. The mice were orally administered with suspensions of indomethacin (1 mg/kg), meloxicam (4 mg/kg), bucillamine (300 mg/kg), and the mixture of extracts from Trachelospermi Caulis and Paeonia Suffruticosa Andrews (SI-000902), every day. For comparison, a normal group (arthritis not induced) and a control (administered with vehicle) were employed. The extract mixture (solid extract, soft extract) was dispersed at a concentration of 20, 50, 100, 200 and 400 mg/kg in a 1% carboxymethyl-cellulose sodium solution before the oral administration. Severity of edema was measured in the four feet of each mouse by blind test with the naked eye every three days and evaluated as grades 0 to 4. The spleen was aseptically excised from arthritis-induced mice, minced and filtered through a filter to separate and collect only the cells. […] After incubation, the cells were fixed, and suppressive activity against splenocyte proliferation was determined using a BrdU ELISA cell proliferation assay kit (Roche).

IFN-γ = IFN-γ production of splenocytes of arthritis-induced mice (ELISA); conditions: positive control group (bucillamine 300 mg/kg oral)
Protocol: (§1) Bovine type II collagen and adjuvant were separately emulsified, and each emulsion was subcutanesously injected at a dose of 100 μg to the tail. Three weeks later, a booster was achieved by the intraperitoneal injection of 100 μg of bovine type II collagen to induce arthritis. Immediately after the induction, drugs were administered for 21 days and their inhibitory activity against arthritis was measured. The mice were orally administered with suspensions of indomethacin (1 mg/kg), meloxicam (4 mg/kg), bucillamine (300 mg/kg), and the mixture of extracts from Trachelospermi Caulis and Paeonia Suffruticosa Andrews (SI-000902), every day. For comparison, a normal group (arthritis not induced) and a control (administered with vehicle) were employed. The extract mixture (solid extract, soft extract) was dispersed at a concentration of 20, 50, 100, 200 and 400 mg/kg in a 1% carboxymethyl-cellulose sodium solution before the oral administration. Severity of edema was measured in the four feet of each mouse by blind test with the naked eye every three days and evaluated as grades 0 to 4. The spleen was aseptically excised from arthritis-induced mice and used to give a cell suspension. […] The level of the cytokines IFN-γ and IL-2 in the medium was measured using an ELISA kit (R&D systems) to examine the inhibitory effect of the extract mixture on the cytokines.

IL-2 = IL-2 production of splenocytes of arthritis-induced mice (ELISA); conditions: positive control group (bucillamine 300 mg/kg oral)
Protocol: as §1

Structure (SMILES): CC(C)(S)C(=O)N[C@@H](CS)C(=O)O [bucillamine]
- inhibition at 300 mg/kg [1]: 51.1%
- suppression of IFN-γ (IFN-γ): 88.5%
- suppression of IL-2 (IL-2): 39.1%
